Data on 13 compounds can be found in patent publication US10189816B2, “Substituted pyridines as inhibitors of human immunodeficiency virus replication” (priority 2015, dated 2019).

The structures appear in SMILES notation. Read-outs that look alike come from different tables or passages of the source.

In this assay the test system is NL-RLuc virus. The assay can be described thus: Inhibition of HIV replication (NL-RLuc reporter virus in MT-2 cells, luciferase readout). The format is cell-based. The following applies: Human immunodeficiency virus 1, MT2, 120 h. The essentials:
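MT-2 cells infected with NL4-3-derived NL-RLuc reporter virus (Renilla luciferase replacing part of nef) with serial compound dilutions, RPMI 1640 + 10% FBS; 5 days. Growth by luciferase; EC50 from median effect equation, ≥2 experiments.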

Consider `Cc1nc(C)c([C@H](OC(C)(C)C)C(=O)O)c(N2CCC(C)(C)CC2)c1-c1ccc2c(c1)CCN(Cc1cccc(OC(C)C)c1)C2` [Compound 154, (S)-2-(tert-butoxy)-2-(4-(4,4-dimethylpiperidin-1-yl)-5-(2-(3-isopropoxybenzyl)-1,2,3,4-tetrahydroisoquinolin-6-yl)-2,6-dimethylpyridin-3-yl)acetic acid], for which, for the setting “read-out: Activity”, the EC50 was below 0.1 µM.
Still for that read-out and setting: the value for `Cc1nc(C)c([C@H](OC(C)(C)C)C(=O)O)c(N2CCC(C)(C)CC2)c1-c1ccc2c(c1)CCN(Cc1ccc3c(c1)CCCO3)C2` [Compound 155, (S)-2-(tert-butoxy)-2-(5-(2-(chroman-6-ylmethyl)-1,2,3,4-tetrahydroisoquinolin-6-yl)-4-(4,4-dimethylpiperidin-1-yl)-2,6-dimethylpyridin-3-yl)acetic acid] was below 0.1 µM.
For the compound `Cc1nc(C)c([C@H](OC(C)(C)C)C(=O)O)c(N2CCC(C)(C)CC2)c1-c1ccc2c(c1)CCN(Cc1ccc3c(c1)OCCO3)C2` [Compound 156, (S)-2-(tert-butoxy)-2-(5-(2-((2,3-dihydrobenzo[b][1,4]dioxin-6-yl)methyl)-1,2,3,4-tetrahydroisoquinolin-6-yl)-4-(4,4-dimethylpiperidin-1-yl)-2,6-dimethylpyridin-3-yl)acetic acid], the EC50 (read-out: Activity) was below 0.1 µM and the EC50 (read-out: EC50 μM) is 0.008 µM.
In the case of `Cc1nc(C)c([C@H](OC(C)(C)C)C(=O)O)c(N2CCC(C)(C)CC2)c1-c1ccc2c(c1)CCN(Cc1ccc(OC(F)F)c(OC(F)F)c1)C2` [Compound 157, (S)-2-(5-(2-(3,4-bis(difluoromethoxy)benzyl)-1,2,3,4-tetrahydroisoquinolin-6-yl)-4-(4,4-dimethylpiperidin-1-yl)-2,6-dimethylpyridin-3-yl)-2-(tert-butoxy)acetic acid], the EC50 (read-out: Activity) was below 0.1 µM.
Still for that read-out and setting: the figure for `Cc1nc(C)c([C@H](OC(C)(C)C)C(=O)O)c(N2CCC(C)(C)CC2)c1-c1ccc2c(c1)CCN(Cc1cccc3c1OCCO3)C2` [Compound 158, (S)-2-(tert-butoxy)-2-(5-(2-((2,3-dihydrobenzo[b][1,4]dioxin-5-yl)methyl)-1,2,3,4-tetrahydroisoquinolin-6-yl)-4-(4,4-dimethylpiperidin-1-yl)-2,6-dimethylpyridin-3-yl)acetic acid] is below 0.1 µM; for `Cc1nc(C)c([C@H](OC(C)(C)C)C(=O)O)c(N2CCC(C)(C)CC2)c1-c1ccc2c(c1)CCN(Cc1c(F)cccc1Oc1ccccc1)C2` [Compound 159, (S)-2-(tert-butoxy)-2-(4-(4,4-dimethylpiperidin-1-yl)-5-(2-(2-fluoro-6-phenoxybenzyl)-1,2,3,4-tetrahydroisoquinolin-6-yl)-2,6-dimethylpyridin-3-yl)acetic acid] it is below 0.1 µM.
On the same count and under the same terms, the value for `Cc1cc(OC(C)C)cc(C)c1CN1CCc2cc(-c3c(C)nc(C)c([C@H](OC(C)(C)C)C(=O)O)c3N3CCC(C)(C)CC3)ccc2C1` [Compound 160, (S)-2-(tert-butoxy)-2-(4-(4,4-dimethylpiperidin-1-yl)-5-(2-(4-isopropoxy-2,6-dimethylbenzyl)-1,2,3,4-tetrahydroisoquinolin-6-yl)-2,6-dimethylpyridin-3-yl)acetic acid] was below 0.1 µM.
`Cc1ccc(CN2CCc3cc(-c4c(C)nc(C)c([C@H](OC(C)(C)C)C(=O)O)c4N4CCC(C)(C)CC4)ccc3C2)cc1C` [Compound 161, (S)-2-(tert-butoxy)-2-(5-(2-(3,4-dimethylbenzyl)-1,2,3,4-tetrahydroisoquinolin-6-yl)-4-(4,4-dimethylpiperidin-1-yl)-2,6-dimethylpyridin-3-yl)acetic acid]: the EC50 (read-out: Activity) is below 0.1 µM.
Still for that read-out and setting: the value for `Cc1nc(C)c([C@H](OC(C)(C)C)C(=O)O)c(N2CCC(C)(C)CC2)c1-c1ccc2c(c1)CCN(Cc1ccc(C3(C#N)CC3)cc1)C2` [Compound 162, (S)-2-(tert-butoxy)-2-(5-(2-(4-(1-cyanocyclopropyl)benzyl)-1,2,3,4-tetrahydroisoquinolin-6-yl)-4-(4,4-dimethylpiperidin-1-yl)-2,6-dimethylpyridin-3-yl)acetic acid] was below 0.1 µM.
As to `CCCCCCCCCOc1ccc(CN2CCc3cc(-c4c(C)nc(C)c([C@H](OC(C)(C)C)C(=O)O)c4N4CCC(C)(C)CC4)ccc3C2)cc1` [Compound 163, (S)-2-(tert-butoxy)-2-(4-(4,4-dimethylpiperidin-1-yl)-2,6-dimethyl-5-(2-(4-(nonyloxy)benzyl)-1,2,3,4-tetrahydroisoquinolin-6-yl)pyridin-3-yl)acetic acid], the EC50 (read-out: Activity) is below 0.1 µM and the EC50 (read-out: EC50 μM) worked out at 0.076 µM.
For `Cc1cccc(Cl)c1CN1CCc2cc(-c3cnc(C)c([C@H](OC(C)(C)C)C(=O)O)c3N3CCC(C)(C)CC3)ccc2C1` [Compound 164, (S)-2-(tert-Butoxy)-2-(5-(2-(2-chloro-6-methylbenzyl)-1,2,3,4-tetrahydroisoquinolin-6-yl)-4-(4,4-dimethylpiperidin-1-yl)-2-methylpyridin-3-yl)acetic acid], in that order: below 0.1 µM and 0.003 µM.
For `Cc1ccccc1CN1CCc2cc(-c3cnc(C)c([C@H](OC(C)(C)C)C(=O)O)c3N3CCC(C)(C)CC3)ccc2C1` [Compound 165, (S)-2-(tert-Butoxy)-2-(4-(4,4-dimethylpiperidin-1-yl)-2-methyl-5-(2-(2-methylbenzyl)-1,2,3,4-tetrahydroisoquinolin-6-yl)pyridin-3-yl)acetic acid], for the setting “read-out: Activity”, the EC50 was below 0.1 µM.
`Cc1cccc(Cl)c1CN1CCc2cc(-c3c(C)nc(C)c([C@H](OC(C)(C)C)C(=O)O)c3N3CCCC(C)(C)C3)ccc2C1` [Compound 166, (S)-2-(tert-butoxy)-2-(5-(2-(2-chloro-6-methylbenzyl)-1,2,3,4-tetrahydroisoquinolin-6-yl)-4-(3,3-dimethylpiperidin-1-yl)-2,6-dimethylpyridin-3-yl)acetic acid]: the EC50 (read-out: Activity) is below 0.1 µM and the EC50 (read-out: EC50 μM) stood at 0.023 µM.
